Key:
[1] = target: T1, GPVI-Fc2 (GPVI dimer) (Homo sapiens, UniProt Q9HCN6); experiment: ELISA: GPVI dimer binding to immobilized collagenous substrates; settings: for Kd (monomer)/Kd (dimer): binding to collagenous substrates
T1 sequence (Q9HCN6 21-214 limits assumed): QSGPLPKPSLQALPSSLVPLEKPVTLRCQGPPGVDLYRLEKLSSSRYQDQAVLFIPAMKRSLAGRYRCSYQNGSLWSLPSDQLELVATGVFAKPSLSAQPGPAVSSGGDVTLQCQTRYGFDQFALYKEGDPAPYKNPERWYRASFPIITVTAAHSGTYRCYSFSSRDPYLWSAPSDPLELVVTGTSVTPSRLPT

[2] = test system: GPVI dimer on washed platelets; experiment: Time and agonist concentration dependence of dimer increase; type: cell-based, human
[3] = test system: GPVI on platelets; experiment: Flow cytometric GPVI quantitation; type: cell-based, human; settings: dimers versus resting platelets
[4] = CRP 5 μg/ml or thrombin 0.2 unit/ml, washed platelets 2.5 × 10^8 cells/ml

## Collagen type I: Pepsin-treated bovine type I collagen from Koken
[1]
  Kd (monomer)/Kd (dimer): 194.3
[1]; mean ± S.E., n = 4-12 as printed
  Hill coefficient for dimer binding: 1.14 ± 0.07

## Thrombin: bovine thrombin (Sigma), platelet agonist
[2]; [4]
  time after which dimer levels started to increase: 30 s
  time at which dimer level reaches a maximum: 4 to 5 min
[2]; washed platelets 1 × 10^8 cells/ml, FITC-m-Fab-F 100 μg/ml
  agonist concentration at which dimer level reaches a maximum: > 0.5 unit/ml
[3]
  % increase after activation: 55%

## GPC–(GPP)5–GAOGARGGAGPOGPEGGKGAAGPOGPO(GPP)5–GPC–NH2 [III-30A]
[1]
  Kd (monomer)/Kd (dimer): 887.0

— publication PMC3436176 (The Journal of Biological Chemistry, 2012)
